This note sets out measurements from article PMC9600515, “Dual Regulatory Role Exerted by Cyclic Dimeric GMP To Control FsnR-Mediated Bacterial Swimming” (mBio, 2022).

The target in one assay is T1, RavS (Stenotrophomonas maltophilia, UniProt B2FQW5).
T1 construct: gene Smlt2324; recombinant from E. coli BL21(DE3), C-terminal His6 or GST tag (GST cleaved); phosphorylated His503; labelled for MST
Put plainly: microscale thermophoresis (MST). It counts as binding. The following applies: PBS buffer; 20 nM fluorescein-labeled RavS. Background: Microscale thermophoresis detects binding through changes in fluorescence in a small temperature gradient.

Another assay addresses T2, FsnR (Stenotrophomonas maltophilia, UniProt B2FQU0).
T2 construct: gene Smlt2299; full length, recombinant from E. coli BL21(DE3), C-terminal His6 or GST tag (GST cleaved on column); Red NHS labelled for MST
The assay can be described thus: microscale thermophoresis (MST). It counts as binding. The following applies: PBS buffer; labelled protein.

T1 sequence (B2FQW5 entry or part of it): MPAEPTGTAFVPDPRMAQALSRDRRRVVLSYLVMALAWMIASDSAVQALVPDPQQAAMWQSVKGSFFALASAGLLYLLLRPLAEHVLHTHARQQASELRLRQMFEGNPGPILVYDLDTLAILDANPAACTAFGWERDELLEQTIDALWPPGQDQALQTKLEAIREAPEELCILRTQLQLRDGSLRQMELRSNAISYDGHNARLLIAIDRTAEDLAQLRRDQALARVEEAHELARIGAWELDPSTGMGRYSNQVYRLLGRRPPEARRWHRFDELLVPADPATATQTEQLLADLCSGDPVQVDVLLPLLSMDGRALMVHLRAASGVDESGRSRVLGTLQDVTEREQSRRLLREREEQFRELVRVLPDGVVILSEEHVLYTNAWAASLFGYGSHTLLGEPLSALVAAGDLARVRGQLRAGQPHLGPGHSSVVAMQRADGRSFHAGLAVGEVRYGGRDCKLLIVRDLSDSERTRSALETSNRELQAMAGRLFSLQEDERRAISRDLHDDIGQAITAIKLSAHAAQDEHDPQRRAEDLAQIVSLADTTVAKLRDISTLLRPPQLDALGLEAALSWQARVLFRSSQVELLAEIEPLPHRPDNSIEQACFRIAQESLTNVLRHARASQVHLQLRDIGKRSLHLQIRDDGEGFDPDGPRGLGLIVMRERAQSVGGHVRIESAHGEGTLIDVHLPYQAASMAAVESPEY
T2 sequence (B2FQU0 entry or part of it): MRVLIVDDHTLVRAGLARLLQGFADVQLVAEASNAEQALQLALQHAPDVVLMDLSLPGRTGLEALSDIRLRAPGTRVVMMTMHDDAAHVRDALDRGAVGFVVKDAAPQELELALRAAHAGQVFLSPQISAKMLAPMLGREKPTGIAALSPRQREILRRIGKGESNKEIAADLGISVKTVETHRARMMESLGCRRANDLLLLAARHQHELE

As usually defined, the Kd is the constant that tells how readily two partners part at equilibrium. A high value points to a looser complex. For the compound `Nc1nc2c(ncn2[C@@H]2O[C@@H]3CO[P@](=O)(O)O[C@H]4[C@@H](O)[C@H](n5cnc6c(=O)[nH]c(N)nc65)O[C@@H]4CO[P@](=O)(O)O[C@H]3[C@H]2O)c(=O)[nH]1` [c-di-GMP], the Kd was determined as 1480 ± 360 nM on RavS and 3430 ± 1360 nM on FsnR.
